# Experimental data: US20210115397A1, “METHOD FOR PROMOTING DIFFERENTIATION OF PLURIPOTENT STEM CELLS” (TOKYO INSTITUTE OF TECHNOLOGY, priority 2018, published 2021)
# System: RPChiPS771 hiPSCs
# Assay: Differentiation of RPChiPS771 into definitive endoderm with or without CHIR99021, SOX17+ cells
# Format: cell-based, human
# Settings: protocol B (CHIR99021 added) versus protocol A (without CHIR99021)
# Method: Medium 1 (M1): Initiation of differentiation was done by replacing the culture with Medium 1, including DMEM with 4, 500 mg/L glucose supplemented with 3 μM CHIR99021 (Stemgent), 100 ng/mL recombinant human activin-A (Cell Guidance Systems Ltd), and 2% B27 insulin (+) supplement (Life Technologies). On days 1 and 2, the media were replaced with medium 1 without CHIR99021. Cells were fixed in 4% paraformaldehyde (NACALAI TESQUE, INC.) in PBS, permeabilized with 0.1% Triton X-100 (NACALAI TESQUE, INC.), and were then blocked with 20% Blocking One (NACALAI TESQUE, INC., Japan) in PBST (0.1% Tween-20 in PBS). Antibodies were diluted in 20% Blocking One (NACALAI TESQUE, INC., Japan) in PBST (0.1% Tween-20 in PBS). Cells were counterstained with […] (DAPI) (Roche Diagnostics K.K., Switzerland). The following primary antibodies were used: mouse anti-Oct3/4 (Santa Cruz Biotechnology, Inc.), goat anti-Sox17 (R&D Systems, Inc.), goat anti-PDX1 (R&D Systems, Inc.), guinea pig anti-insulin (Dako), rabbit anti-C-peptide (Cell Signaling Technology, Inc.), and mouse anti-Nkx6.1 (Developmental Studies Hybridoma Bank). […] Positive cells versus total cells (DAPI-positive cells) were quantified using ImageXpress Micro cellular imaging system (Molecular Devices, LLC.).
compound,measurement,value
"Cc1c[nH]c(-c2cnc(NCCNc3ccc(C#N)cn3)nc2-c2ccc(Cl)cc2Cl)n1 [CHIR99021, 6-[[2-[[4-(2,4-dichlorophenyl)-5-(4-methyl-1H-imidazole-2-yl)-2-pyrimidinyl]amino]ethyl]amino]nicotinonitrile]",proportion of SOX17+ cells,a higher proportion of SOX17+ cells overall
